In assay [1] the test system is MCF-7 (breast carcinoma). Description: Cancer screening (MTT growth inhibition), MCF-7. The assay is classed as cell-based. Conditions: Homo sapiens, MCF7, 25 µM of drug, 72 h, n = 3, mean ± SEM, read-out: Percentage (%) cell growth inhibition. How it is done: (§1) All test agents were prepared as stock solutions (20 mM) in dimethyl sulfoxide (DMSO) and stored at −20 °C. Cell lines used in the study included: HT29 (colorectal carcinoma), U87 and SJ-G2 (glioblastoma), MCF-7 (breast carcinoma), A2780 (ovarian carcinoma), H460 (lung carcinoma), A431 (skin carcinoma), Du145 (prostate carcinoma), BE2-C (neuroblastoma), MiaPaCa-2 (pancreatic carcinoma), SMA560 (spontaneous murine astrocytoma), and ADDP (Cis Res Ovarian), together with one non-tumor-derived normal breast cell line (MCF10A). All cell lines were incubated in a humidified atmosphere with 5 % CO2 at 37 °C. The cancer cell lines were maintained in Dulbecco’s modified Eagle’s medium (DMEM; Sigma, Australia) supplemented with fetal bovine serum (10%), sodium pyruvate (10 mM), penicillin (100 IUmL^−1), streptomycin (100 µg mL^−1), and L-glutamine (2 mM).
(§2) Growth inhibition was determined by plating cells in duplicate in medium (100 µL) at a density of 2500–4000 cells per well in 96-well plates. On day 0 (24 h after plating), when the cells are in logarithmic growth, medium (100 µL) with or without the test agent was added to each well. After 72 h of drug exposure, growth inhibitory effects were evaluated using the (3-(4,5-dimethyltiazol-2-yl)-2,5-diphenyltetrazolium bromide) (MTT) assay and absorbance read at 540 nm. The percentage growth inhibition was calculated at a fixed concentration of 25 µM, based on the difference between the optical density values on day 0 and those at the end of drug exposure. Each data point is the mean ± the standard error of the mean (SEM) calculated from three replicates, which were performed on separate occasions and in separate cell line passages.

Assay [2] relates to rat intestinal maltase α-glucosidase. Put plainly: Glycosidase inhibition, rat intestinal maltase. The assay is classed as biochemical. Conditions: at 100 μM; for inhibition %: in methanol. From the text: (§3) Glycosidase modulation studies need to explore selectivity as well as potency. Our drugs and controls are therefore screened against a panel of glycosidases in methanol (Table 1) to identify the glycosidase-related disease area(s), selectivity profile, and potency of biological action for each drug. The presence of organic boron covalently bonded to the drug structure also grants a reduced toxicity profile. Following the glycosidase inhibition range recommendations, an IC50 value >250 μm denotes weak inhibition, 100–249 μm denotes moderate inhibition, 10–99 μm good inhibition, 0.1–9 μm potent inhibition, and <0.1 μm very potent inhibition. […] Our boronated D-galactose 7 represents a novel lead in glycosidase inhibition.
(§4) The glycosidases screened are the following: rice α-glucosidase, yeast α-glucosidase, Bacillus α-glucosidase, rat intestinal maltase α-glucosidase, almond β-glucosidase, bovine liver β-glucosidase, coffee beans α-galactosidase, bovine liver β-galactosidase, Jack bean α-mannosidase, snail β-mannosidase, Penicillium decumbens α-L-rhamnosidase, bovine kidney α-L-fucosidase, Eschierichia coli β-glucuronidase, bovine liver β-glucuronidase, porcine kidney trehalase, Aspergillus niger amyloglucosidase, and bovine kidney N-acetyl-β-glucosaminidase. The disease areas for each glycosidase are summarized in [1].
(§5) Brush border membranes were prepared from the rat small intestine according to the method of Kessler et al. and were assayed at pH 6.8 for rat intestinal maltase using maltose. For rat intestinal maltase, porcine kidney trehalase, and A. niger amyloglucosidase activities, the reaction mixture contained 25 mM maltose and the appropriate amount of enzyme, and the incubations were performed for 10–30 min at 37 °C. The reaction was stopped by heating at 100 °C for 3 min. After centrifugation (600 g; 10 min), the resulting reaction mixture was added to the Glucose CII-test Wako (Wako Pure Chemical Ind., Osaka, Japan). The absorbance at 505 nm was measured to determine the amount of the released D-glucose. Other glycosidase activities were determined using an appropriate para-nitrophenyl glycoside as substrate at the optimum pH of each enzyme. The reaction mixture contained 2 mM of the substrate and the appropriate amount of enzyme. The reaction was stopped by the addition of 400 mM Na2CO3. The released para-nitrophenol was measured spectrometrically at 400 nm. All reactions run in methanol.

Assay [3] relates to Penicillium decumbens α-L-rhamnosidase. Put plainly: Glycosidase inhibition, Penicillium decumbens α-L-rhamnosidase. Conditions: at 100 μM; for inhibition %: in methanol. Type of assay: biochemical.
Description: as §3, §4
(§6) The enzymes α-glucosidase (from yeast), β-glucosidases (from almond and bovine liver), α-galactosidase (from coffee beans), β-galactosidase (from bovine liver), α-mannosidase (from Jack bean), β-mannosidase (from snail), α-L-rhamnosidase (from Penicillium decumbens), α-L-fucosidase (from bovine kidney), trehalase (from porcine kidney), β-glucuronidases (from E. coli and bovine liver), amyloglucosidase (from A. niger), para-nitrophenyl glycosides, and various disaccharides were purchased from Sigma-Aldrich Co.
as §5

Assay [4] concerns SJ-G2 (glioblastoma). Put plainly: Cancer screening (MTT growth inhibition), SJ-G2. Type of assay: cell-based. Conditions: SJ-G2, 25 µM of drug, 72 h, n = 3, mean ± SEM, read-out: Percentage (%) cell growth inhibition. The method, then:
as §1, §2

Assay [5] deals with yeast α-glucosidase. Description: Glycosidase inhibition, yeast α-glucosidase. The assay is classed as biochemical. Conditions: at 100 μM; for inhibition %: in methanol.
Description: as §3, §4, §6, §5

Assay [6] deals with MCF10A (non-tumor-derived normal breast cell line). Description: Cancer screening (MTT growth inhibition), MCF10A. The assay is classed as cell-based. Conditions: Homo sapiens, MCF-10A, 25 µM of drug, 72 h, n = 3, mean ± SEM, read-out: Percentage (%) cell growth inhibition. How it is done:
as §1
The non-cancer MCF10A cell line was maintained in DMEM:F12 (1:1) cell culture media, 5% heat inactivated horse serum, and supplemented with penicillin (50 IUmL^−1), streptomycin (50 µg mL^−1), HEPES (20 mM), L-glutamine (2 mM), epidermal growth factor (20 ng mL^−1), hydrocortisone (500 ng mL^−1), cholera toxin (100 ng mL^−1), and insulin ([…]).
as §2

Assay [7] addresses T1, E. coli β-glucuronidase (Escherichia coli, UniProt P05804).
T1 construct: purchased Sigma-Aldrich Co
Description: Glycosidase inhibition, E. coli β-glucuronidase. Type of assay: biochemical. Conditions: at 100 μM.
Description: as §3, §4, §6, §5

Assay [8] deals with rice α-glucosidase (Oryza sativa subsp. japonica, UniProt Q653V7). Put plainly: Glycosidase inhibition, rice α-glucosidase. Type of assay: biochemical. Conditions: at 100 μM.
Description: as §3, §4, §5

In assay [9] the test system is BE2-C (neuroblastoma). Put plainly: Cancer screening (MTT growth inhibition), BE2-C. The assay is classed as cell-based. Conditions: Homo sapiens, BE(2)-C, 25 µM of drug, 72 h, n = 3, mean ± SEM, read-out: Percentage (%) cell growth inhibition. How it is done: as §1, §2
Assay [10] deals with Du145 (prostate carcinoma). Description: Cancer screening (MTT growth inhibition), Du145. Conditions: Homo sapiens, DU-145, 25 µM of drug, 72 h, n = 3, mean ± SEM, read-out: Percentage (%) cell growth inhibition. The assay is classed as cell-based. How it is done: as §1, §2
Assay [11] concerns the target T2, coffee beans α-galactosidase (Coffea arabica, UniProt Q42656).
T2 construct: purchased Sigma-Aldrich Co
Put plainly: Glycosidase inhibition, coffee beans α-galactosidase. Conditions: at 100 μM. The assay is classed as biochemical.
Description: as §3, §4, §6, §5

Assay [12] has as its system H460 (lung carcinoma). Description: Cancer screening (MTT growth inhibition), H460. The assay is classed as cell-based. Conditions: Homo sapiens, NCI-H460, 25 µM of drug, 72 h, n = 3, mean ± SEM, read-out: Percentage (%) cell growth inhibition. How it is done: as §1, §2
Assay [13] deals with HT29 (colorectal carcinoma). Put plainly: Cancer screening (MTT growth inhibition), HT29. Type of assay: cell-based. Conditions: Homo sapiens, HT-29, 25 µM of drug, 72 h, n = 3, mean ± SEM, read-out: Percentage (%) cell growth inhibition. The method, then:
as §1, §2

Assay [14] concerns snail β-mannosidase. Put plainly: Glycosidase inhibition, snail β-mannosidase. The assay is classed as biochemical. Conditions: at 100 μM; for inhibition %: in methanol.
Description: as §3, §4, §6, §5

Assay [15] has as its system bovine liver β-galactosidase. Put plainly: Glycosidase inhibition, bovine liver β-galactosidase. Type of assay: biochemical. Conditions: at 100 μM; for inhibition %: in methanol.
Description: as §3, §4, §6, §5

The subject of assay [16] is MiaPaCa-2 (pancreatic carcinoma). Description: Cancer screening (MTT growth inhibition), MIA-Pa-Ca2. Type of assay: cell-based. Conditions: Homo sapiens, MIA PaCa-2, 25 µM of drug, 72 h, n = 3, mean ± SEM, read-out: Percentage (%) cell growth inhibition. The method, then: as §1, §2
[17] abbreviates: in methanol, read-out: inhibition %.

Where two headings read alike, the source gives them in different places.

The inhibition is the relative decrease from the control value, in per cent.

T1 sequence (P05804 whole entry): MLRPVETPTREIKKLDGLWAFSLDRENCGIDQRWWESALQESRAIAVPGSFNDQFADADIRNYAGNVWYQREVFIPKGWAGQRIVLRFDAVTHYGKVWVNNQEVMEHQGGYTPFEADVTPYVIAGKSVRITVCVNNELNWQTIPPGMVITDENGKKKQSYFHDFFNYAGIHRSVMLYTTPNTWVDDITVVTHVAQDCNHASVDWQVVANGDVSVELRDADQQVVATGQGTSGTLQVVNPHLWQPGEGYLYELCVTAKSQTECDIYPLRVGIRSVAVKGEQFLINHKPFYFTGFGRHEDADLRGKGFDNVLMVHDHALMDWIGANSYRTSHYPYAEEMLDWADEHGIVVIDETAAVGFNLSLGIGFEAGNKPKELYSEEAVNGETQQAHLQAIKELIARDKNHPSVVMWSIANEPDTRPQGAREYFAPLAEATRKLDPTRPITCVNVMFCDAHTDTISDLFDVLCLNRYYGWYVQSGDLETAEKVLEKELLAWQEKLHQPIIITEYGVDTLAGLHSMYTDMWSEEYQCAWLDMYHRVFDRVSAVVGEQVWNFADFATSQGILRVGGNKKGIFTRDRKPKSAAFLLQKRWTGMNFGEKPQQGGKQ
Chain of rice α-glucosidase (Q653V7 34-885): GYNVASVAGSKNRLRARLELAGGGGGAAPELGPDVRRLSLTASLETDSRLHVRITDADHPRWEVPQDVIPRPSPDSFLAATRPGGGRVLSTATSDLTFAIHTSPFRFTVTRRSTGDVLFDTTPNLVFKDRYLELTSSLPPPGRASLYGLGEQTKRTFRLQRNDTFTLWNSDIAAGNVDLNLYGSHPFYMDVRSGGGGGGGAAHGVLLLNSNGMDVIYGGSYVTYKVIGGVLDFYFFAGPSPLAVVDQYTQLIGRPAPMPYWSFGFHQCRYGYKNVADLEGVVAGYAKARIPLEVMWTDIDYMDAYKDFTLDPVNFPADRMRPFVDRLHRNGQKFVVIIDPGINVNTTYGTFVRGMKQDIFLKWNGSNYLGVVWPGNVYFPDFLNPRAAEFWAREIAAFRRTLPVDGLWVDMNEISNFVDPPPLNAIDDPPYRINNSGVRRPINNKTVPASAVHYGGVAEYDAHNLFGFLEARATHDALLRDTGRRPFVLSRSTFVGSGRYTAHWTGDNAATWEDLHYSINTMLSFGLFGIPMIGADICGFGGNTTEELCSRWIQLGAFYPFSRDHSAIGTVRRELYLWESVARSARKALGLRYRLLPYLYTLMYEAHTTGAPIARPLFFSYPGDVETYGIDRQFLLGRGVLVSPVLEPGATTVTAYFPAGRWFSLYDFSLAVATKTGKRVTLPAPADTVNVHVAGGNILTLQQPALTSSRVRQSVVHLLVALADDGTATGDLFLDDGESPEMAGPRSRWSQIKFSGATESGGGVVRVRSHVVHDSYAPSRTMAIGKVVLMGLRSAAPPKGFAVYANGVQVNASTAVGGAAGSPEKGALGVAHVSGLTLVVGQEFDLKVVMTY
T2 sequence (Q42656 16-378): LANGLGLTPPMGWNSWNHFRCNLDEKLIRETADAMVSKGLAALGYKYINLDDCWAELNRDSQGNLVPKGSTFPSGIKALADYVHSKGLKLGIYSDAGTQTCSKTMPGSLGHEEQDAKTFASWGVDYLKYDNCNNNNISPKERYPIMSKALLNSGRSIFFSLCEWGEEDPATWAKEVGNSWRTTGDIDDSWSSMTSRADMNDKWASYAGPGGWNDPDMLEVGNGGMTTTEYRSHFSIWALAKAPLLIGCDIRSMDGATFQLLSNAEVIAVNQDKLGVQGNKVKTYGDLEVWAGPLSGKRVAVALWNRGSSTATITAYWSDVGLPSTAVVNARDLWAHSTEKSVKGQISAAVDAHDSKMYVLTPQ

In the case of `N[C@@H](Cc1ccc(B(O)O)cc1)C(=O)O` [BPA, 4-borono-L-phenylalanine], the inhibition at 25 µM in assay [1] is below 0%; in [4], 5 ± 8%; in assay [6], 4 ± 1%; in assay [9], 13 ± 10%; in assay [10] it was 19 ± 10%; in assay [12] it was 7 ± 8%. Also, the inhibition at 25 µM is 14% in assay [13] and 3 ± 3% in [16]. Besides, the “NI: No inhibition” value in assay [2], in assay [3], in assay [5], in assay [14] and in assay [15] was “NI (No inhibition (less than 50% inhibition at 100 μM))” in each case. Further, the inhibition % was 0% in assay [2]; 0% in [3]; 0% in assay [5]; 2.1% in assay [14]; 10.9% in [15]. In addition, the inhibition at 100 µM in assay [7] (setting [17]) is 0.5%; in assay [7] (read-out: NI: No inhibition) it was below 50%; in assay [8] (setting [17]), 0%; in assay [8] (read-out: NI: No inhibition), below 50%; in assay [11] (setting [17]) it was 4.3%; in assay [11] (read-out: NI: No inhibition), below 50%.
In the case of `CC1(C)OCC(C2OC3OC(C)(C)OC3C2[B-]23OCC[NH+]2CCO3)O1` [Compound 6, 3-Deoxy-3-Boronodiethanolamine-1,2:5,6-Di-O-isopropylidene-α-D-galactofuranose], the inhibition at 25 µM was 14 ± 5% in [1]; below 0% in [4]; 5 ± 1% in [6]; 2 ± 5% in assay [9]; 0% in [10]; 9 ± 2% in assay [12]. The inhibition at 25 µM in assay [13] turned out to be 10 ± 5%; in [16], 3 ± 1%. The “NI: No inhibition” value in assay [2], in assay [3], in assay [5], in assay [14] and in assay [15] was “NI (No inhibition (less than 50% inhibition at 100 μM))” throughout. Also, the inhibition % came to 3.1% in [2]; 0.3% in assay [3]; 0% in [5]; 0% in assay [14]; 16.3% in assay [15]. In addition, the inhibition at 100 µM in assay [7] (setting [17]) was 3.5%; in assay [7] (read-out: NI: No inhibition), below 50%; in [8] (setting [17]), 5.9%; in assay [8] (read-out: NI: No inhibition), below 50%; in assay [11] (setting [17]), 0.5%; in [11] (read-out: NI: No inhibition), below 50%.

Source of the values: paper PMC10254170, “Diastereoselective Synthesis of the Borylated D-Galactose Monosaccharide 3-Boronic-3-Deoxy-D-Galactose and Biological Evaluation in Glycosidase Inhibition and in Cancer for Boron Neutron Capture Therapy (BNCT)” (Molecules, 2023).
